Reference: ChEMBL document CHEMBL1201862, “PubChem BioAssay data set” (2004)
Calls of active or inactive are those of the source.

Key:
Cytochrome P450 1A2 = target: T1, Cytochrome P450 1A2 (Homo sapiens, UniProt P05177);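 note: PubChem cytochrome P450 panel assay, CYP1A2 panel member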
T1 sequence (P05177 whole entry): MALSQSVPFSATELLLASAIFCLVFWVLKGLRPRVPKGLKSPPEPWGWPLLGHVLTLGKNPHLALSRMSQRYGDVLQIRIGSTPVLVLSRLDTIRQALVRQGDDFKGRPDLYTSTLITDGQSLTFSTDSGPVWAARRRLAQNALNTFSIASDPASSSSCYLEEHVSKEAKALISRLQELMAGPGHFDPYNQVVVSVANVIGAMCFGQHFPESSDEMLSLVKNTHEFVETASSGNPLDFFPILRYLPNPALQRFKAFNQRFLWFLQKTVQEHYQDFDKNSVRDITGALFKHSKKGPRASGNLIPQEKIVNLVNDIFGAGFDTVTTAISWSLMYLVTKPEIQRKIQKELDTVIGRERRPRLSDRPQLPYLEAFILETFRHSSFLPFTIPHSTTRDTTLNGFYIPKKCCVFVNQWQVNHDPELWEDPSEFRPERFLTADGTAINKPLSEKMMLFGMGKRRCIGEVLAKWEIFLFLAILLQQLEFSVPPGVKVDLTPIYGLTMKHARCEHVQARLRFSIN

Cytochrome P450 2D6 = Cytochrome P450 2D6 (Homo sapiens, UniProt P10635);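 note: CYP2D6 member of a cytochrome P450 panel assay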
[1] = NIH-3T3 fibroblast cytotoxicity, dose response, cytotoxicity control, cell-based, fluorescence, Alamar Blue, secondary assay (AID 2327); format: functional;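 note: NIH-3T3 mouse fibroblasts cultured with fluconazole at 8 µg/mL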
[2] = C. albicans growth with fluconazole, confirmation, fluorescence, retest (AID 2467); format: functional, cell-based
[3] = Shn3 3'UTR reporter inhibitors, dose response, cell-based, Clone20 osteoblasts, firefly luciferase, cherry-picked (AID 624132); format: functional;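 note: firefly luciferase luminescence from reporter carrying the Shn3 3'UTR in osteoblasts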
[4] = HepG2 cell cytotoxicity, dose response, cytotoxicity control for Shn3 inhibitor project, CellTiter-Glo, cherry-picked (AID 624134); format: functional, cell-based
[5] = control 3'UTR Renilla luciferase suppression, dose response, counter-screen for Shn3 inhibitor project, cell-based, Clone20-Shn3RL, cherry-picked (AID 624133); format: functional
HEK293 [6] = experiment: cells; conditions: Homo sapiens
HEK293 [7] = experiment: cells; conditions: Homo sapiens; remark: listed apart in the source
[8] = THP-1 cell cytotoxicity, dose response, cytotoxicity control for non-replicating M. tuberculosis project (AID 489025); format: functional
[9] = target: Dual specificity tyrosine-phosphorylation-regulated kinase 1A (Rattus norvegicus, UniProt Q63470); format: biochemical, Homo sapiens
[10] = target: G-protein coupled receptor 55 (Homo sapiens, UniProt Q9Y2T6); experiment: GPR55 antagonists blocking LPI-driven arrestin recruitment, primary screen, imaging, U2OS, beta-arrestin-GFP, LPI agonist (AID 2013); format: functional;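 note: antagonist potency measured as reduced agonist-driven arrestin aggregation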
[11] = inhibitors of HIV Env-driven cell fusion, dose response, cherry-pick (AID 652057); format: functional, cell-based
[12] = CEM21 lymphoblast cell cytotoxicity, dose response, cytotoxicity control for viral fusion inhibitor project, CellTiter-Glo luminescence, cherry-picked (AID 652042); format: functional, cell-based;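 note: potency for signal decrease meaning cytotoxicity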
[13] = off-target signal loss in HeLa-CEM21 co-culture – HeLa F-luc CTL cells, cherry-picked, counter-screen for HIV-1 Env fusion inhibitor project, dose response (AID 652040); format: functional, cell-based;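 note: potency for signal decrease marking cytotoxic or nonspecific inhibition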
[14] = inhibitors of clade B AD8 Env fusion, dose response, cell-based, cherry-pick (AID 652062); format: functional;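 note: luciferase signal from cell-cell fusion driven by HIV-1 clade B AD8 Env; potency is for inhibitors of fusion seen as a drop in luminescence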
Cytochrome P450 2C19 = Cytochrome P450 2C19 (Homo sapiens, UniProt P33261); experiment: Cytochrome panel assay with activity outcomes. Panel member name: p450-cyp2c19 Compounds with AC50 equal or less than 10 uM are considered active; format: functional
Bcl-2-related protein A1 = target: T2, Bcl-2-related protein A1 (Mus musculus, UniProt Q07440); format: functional;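 note: confirmatory dose–response counterscreen on Bfl-1, used to check hits from a UBC13 polyubiquitin inhibitor campaign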
T2 sequence (Q07440 whole entry): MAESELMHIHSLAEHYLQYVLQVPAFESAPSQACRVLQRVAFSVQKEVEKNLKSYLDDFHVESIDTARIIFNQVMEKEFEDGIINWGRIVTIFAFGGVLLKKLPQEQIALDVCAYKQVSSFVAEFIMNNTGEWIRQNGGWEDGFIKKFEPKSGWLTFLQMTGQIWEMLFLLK

[15] = target: T3, Ubiquitin-conjugating enzyme E2 N (Homo sapiens, UniProt P61088); format: functional
T3 sequence (P61088 whole entry): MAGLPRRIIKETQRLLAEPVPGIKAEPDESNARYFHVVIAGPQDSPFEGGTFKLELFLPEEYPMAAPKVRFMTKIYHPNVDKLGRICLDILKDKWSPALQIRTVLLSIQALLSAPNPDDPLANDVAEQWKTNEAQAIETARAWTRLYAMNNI

[16] = target: T3, Ubiquitin-conjugating enzyme E2 N; format: functional; remark: listed apart in the source
[17] = target: T4, Histone-lysine N-methyltransferase NSD2 (Homo sapiens, UniProt O96028); format: biochemical
T4 sequence (O96028 whole entry): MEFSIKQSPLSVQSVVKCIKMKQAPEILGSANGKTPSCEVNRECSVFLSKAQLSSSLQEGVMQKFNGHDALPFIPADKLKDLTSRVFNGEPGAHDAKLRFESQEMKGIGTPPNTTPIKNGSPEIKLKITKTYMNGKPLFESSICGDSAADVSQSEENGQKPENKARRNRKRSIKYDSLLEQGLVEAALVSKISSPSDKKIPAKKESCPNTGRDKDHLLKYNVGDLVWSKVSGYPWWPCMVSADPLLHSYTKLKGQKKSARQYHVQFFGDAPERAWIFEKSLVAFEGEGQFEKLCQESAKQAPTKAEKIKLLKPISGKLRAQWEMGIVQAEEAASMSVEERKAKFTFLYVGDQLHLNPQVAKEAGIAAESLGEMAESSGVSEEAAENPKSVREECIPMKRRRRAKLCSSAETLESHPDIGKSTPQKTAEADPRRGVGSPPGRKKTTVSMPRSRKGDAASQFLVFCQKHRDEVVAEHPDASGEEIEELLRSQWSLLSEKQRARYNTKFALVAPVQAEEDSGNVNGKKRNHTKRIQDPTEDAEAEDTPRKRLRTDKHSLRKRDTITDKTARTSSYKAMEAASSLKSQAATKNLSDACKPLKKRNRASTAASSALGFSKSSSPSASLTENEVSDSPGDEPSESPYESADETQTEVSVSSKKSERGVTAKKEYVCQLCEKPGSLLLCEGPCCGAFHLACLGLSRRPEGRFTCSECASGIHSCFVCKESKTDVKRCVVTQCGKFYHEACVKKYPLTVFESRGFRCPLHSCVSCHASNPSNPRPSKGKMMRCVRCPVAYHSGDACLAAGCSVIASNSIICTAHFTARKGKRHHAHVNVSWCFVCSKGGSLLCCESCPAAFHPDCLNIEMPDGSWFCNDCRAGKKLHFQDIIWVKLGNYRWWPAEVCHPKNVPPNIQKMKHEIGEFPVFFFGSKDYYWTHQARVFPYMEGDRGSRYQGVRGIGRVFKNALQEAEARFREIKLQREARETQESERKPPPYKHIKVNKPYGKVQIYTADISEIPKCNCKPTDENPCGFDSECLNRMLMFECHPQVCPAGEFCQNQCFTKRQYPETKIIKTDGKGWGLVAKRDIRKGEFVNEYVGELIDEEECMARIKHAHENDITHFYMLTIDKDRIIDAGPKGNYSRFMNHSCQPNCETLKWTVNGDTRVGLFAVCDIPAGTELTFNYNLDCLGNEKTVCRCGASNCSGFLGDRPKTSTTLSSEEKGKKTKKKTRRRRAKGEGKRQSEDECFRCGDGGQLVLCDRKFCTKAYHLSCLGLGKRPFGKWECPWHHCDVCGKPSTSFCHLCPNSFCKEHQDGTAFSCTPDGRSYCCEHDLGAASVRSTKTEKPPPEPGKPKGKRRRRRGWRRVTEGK

Escherichia coli = experiment: microbe, parasite or virus in culture
[18] = target: T5, High affinity choline transporter 1 (Homo sapiens, UniProt Q9GZV3); experiment: CHT inhibitors, dose response, cell-based, 5-point CRC, membrane potential dye (AID 504840); format: functional
T5 sequence (Q9GZV3 whole entry): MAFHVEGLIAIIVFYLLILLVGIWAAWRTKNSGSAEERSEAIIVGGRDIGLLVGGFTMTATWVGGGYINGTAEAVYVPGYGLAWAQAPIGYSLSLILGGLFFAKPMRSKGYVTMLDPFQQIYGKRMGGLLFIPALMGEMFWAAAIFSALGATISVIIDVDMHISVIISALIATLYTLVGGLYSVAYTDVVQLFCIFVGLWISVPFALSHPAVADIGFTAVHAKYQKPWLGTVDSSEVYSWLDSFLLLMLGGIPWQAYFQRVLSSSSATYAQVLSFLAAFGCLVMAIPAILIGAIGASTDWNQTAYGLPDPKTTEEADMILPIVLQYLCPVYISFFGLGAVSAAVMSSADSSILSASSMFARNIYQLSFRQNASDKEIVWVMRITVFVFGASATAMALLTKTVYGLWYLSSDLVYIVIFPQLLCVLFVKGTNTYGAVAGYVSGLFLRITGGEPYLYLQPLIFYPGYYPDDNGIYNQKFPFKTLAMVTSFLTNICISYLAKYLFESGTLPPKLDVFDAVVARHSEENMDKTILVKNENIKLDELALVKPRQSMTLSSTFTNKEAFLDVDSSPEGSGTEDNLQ

H9c2 = experiment: cells; format: functional, cell-based; conditions: Rattus norvegicus, H9c2, Myocardium;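 note: confirmatory concentration-response retest of ultra-high-throughput screening hits for modulation of myocardial damage; cell death induced by hydrogen peroxide oxidative stress; compound pretreatment for 60 min then peroxide exposure for 2 h; potency is for protecting the cells against peroxide damage rather than for killing them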
Hexokinase-1 = Hexokinase-1 (Homo sapiens, UniProt P19367); experiment: HK1 enzyme inhibition by HKDC1 hits, SAR follow-up, selectivity assay for HKDC1 inhibitor project, biochemical, set 2, resazurin fluorescence coupled readout (AID 588356); format: functional
Hexokinase HKDC1 = target: T6, Hexokinase HKDC1 (Homo sapiens, UniProt Q2TB90); experiment: HKDC1 hexokinase inhibitors, SAR follow-up, biochemical, set 2 (AID 588355); format: functional
T6 sequence (Q2TB90 whole entry): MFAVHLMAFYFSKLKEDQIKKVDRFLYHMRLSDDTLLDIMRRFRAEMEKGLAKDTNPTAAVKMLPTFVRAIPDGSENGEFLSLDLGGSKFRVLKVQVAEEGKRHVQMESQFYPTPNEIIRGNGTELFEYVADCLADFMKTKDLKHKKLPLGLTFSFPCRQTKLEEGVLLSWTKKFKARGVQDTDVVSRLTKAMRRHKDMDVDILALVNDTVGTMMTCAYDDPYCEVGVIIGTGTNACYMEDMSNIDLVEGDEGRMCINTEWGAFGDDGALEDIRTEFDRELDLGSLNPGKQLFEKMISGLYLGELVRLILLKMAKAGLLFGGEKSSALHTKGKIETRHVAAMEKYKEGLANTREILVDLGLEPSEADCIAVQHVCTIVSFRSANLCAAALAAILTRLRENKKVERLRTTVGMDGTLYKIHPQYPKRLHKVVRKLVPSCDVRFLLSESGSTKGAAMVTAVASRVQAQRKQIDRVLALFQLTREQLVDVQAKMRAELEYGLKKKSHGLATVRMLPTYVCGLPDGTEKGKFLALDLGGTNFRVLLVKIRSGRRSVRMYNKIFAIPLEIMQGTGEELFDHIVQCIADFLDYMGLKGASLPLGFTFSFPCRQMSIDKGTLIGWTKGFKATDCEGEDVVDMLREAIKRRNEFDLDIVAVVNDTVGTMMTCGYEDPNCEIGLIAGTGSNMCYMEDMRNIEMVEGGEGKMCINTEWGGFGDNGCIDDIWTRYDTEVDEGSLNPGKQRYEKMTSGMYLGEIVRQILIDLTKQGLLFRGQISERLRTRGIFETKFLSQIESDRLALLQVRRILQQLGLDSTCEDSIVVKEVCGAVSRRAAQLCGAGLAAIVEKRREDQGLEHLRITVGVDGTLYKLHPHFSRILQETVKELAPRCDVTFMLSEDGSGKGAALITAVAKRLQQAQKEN

Chain of Cytochrome P450 2D6 (P10635 whole entry): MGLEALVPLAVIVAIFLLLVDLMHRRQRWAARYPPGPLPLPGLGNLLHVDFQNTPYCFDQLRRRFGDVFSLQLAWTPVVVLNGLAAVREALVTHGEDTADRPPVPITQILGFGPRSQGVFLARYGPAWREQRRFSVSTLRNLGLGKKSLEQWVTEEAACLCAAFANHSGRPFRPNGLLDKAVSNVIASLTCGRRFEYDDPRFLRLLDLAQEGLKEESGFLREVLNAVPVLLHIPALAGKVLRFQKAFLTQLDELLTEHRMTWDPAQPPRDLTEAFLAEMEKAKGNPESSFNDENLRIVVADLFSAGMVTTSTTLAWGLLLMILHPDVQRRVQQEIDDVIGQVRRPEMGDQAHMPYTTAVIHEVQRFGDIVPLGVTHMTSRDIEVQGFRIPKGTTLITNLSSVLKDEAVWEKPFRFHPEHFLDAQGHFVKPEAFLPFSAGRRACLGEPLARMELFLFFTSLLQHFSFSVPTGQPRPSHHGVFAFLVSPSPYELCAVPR
Chain of Hexokinase-1 (P19367 whole entry): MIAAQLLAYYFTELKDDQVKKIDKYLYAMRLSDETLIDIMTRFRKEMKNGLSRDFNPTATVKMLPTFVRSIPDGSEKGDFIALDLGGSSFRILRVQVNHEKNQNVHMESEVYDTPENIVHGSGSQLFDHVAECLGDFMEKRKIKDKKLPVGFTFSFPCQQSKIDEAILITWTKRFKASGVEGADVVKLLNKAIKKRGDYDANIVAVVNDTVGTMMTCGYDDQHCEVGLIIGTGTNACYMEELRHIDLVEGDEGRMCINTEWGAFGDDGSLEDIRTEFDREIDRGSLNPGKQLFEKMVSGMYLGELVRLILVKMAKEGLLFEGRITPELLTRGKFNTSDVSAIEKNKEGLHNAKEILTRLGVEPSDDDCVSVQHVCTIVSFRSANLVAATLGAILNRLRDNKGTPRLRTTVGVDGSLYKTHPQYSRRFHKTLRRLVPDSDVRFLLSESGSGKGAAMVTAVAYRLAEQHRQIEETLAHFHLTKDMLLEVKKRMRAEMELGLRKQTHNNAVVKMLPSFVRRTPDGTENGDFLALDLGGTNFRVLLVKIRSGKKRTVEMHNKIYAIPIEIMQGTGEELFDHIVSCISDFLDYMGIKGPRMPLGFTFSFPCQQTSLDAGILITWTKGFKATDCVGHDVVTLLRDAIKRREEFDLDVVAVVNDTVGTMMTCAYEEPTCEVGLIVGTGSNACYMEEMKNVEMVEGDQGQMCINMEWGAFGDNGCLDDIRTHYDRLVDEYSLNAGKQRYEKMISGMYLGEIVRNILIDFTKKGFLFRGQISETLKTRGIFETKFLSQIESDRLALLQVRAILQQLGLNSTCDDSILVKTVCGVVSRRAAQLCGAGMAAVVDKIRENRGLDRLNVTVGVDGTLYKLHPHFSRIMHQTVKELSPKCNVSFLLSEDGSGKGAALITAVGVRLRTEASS
Chain of G-protein coupled receptor 55 (Q9Y2T6 whole entry, the tested form may be a part): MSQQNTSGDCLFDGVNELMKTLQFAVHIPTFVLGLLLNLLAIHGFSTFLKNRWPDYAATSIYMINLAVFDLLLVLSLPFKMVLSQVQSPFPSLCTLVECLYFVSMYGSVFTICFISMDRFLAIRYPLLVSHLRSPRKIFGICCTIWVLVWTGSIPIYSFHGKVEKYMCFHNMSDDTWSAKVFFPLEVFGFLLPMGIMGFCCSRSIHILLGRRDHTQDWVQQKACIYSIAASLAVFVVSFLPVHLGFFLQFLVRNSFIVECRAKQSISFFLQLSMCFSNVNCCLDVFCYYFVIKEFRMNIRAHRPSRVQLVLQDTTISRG
Chain of Cytochrome P450 2C19 (P33261 whole entry): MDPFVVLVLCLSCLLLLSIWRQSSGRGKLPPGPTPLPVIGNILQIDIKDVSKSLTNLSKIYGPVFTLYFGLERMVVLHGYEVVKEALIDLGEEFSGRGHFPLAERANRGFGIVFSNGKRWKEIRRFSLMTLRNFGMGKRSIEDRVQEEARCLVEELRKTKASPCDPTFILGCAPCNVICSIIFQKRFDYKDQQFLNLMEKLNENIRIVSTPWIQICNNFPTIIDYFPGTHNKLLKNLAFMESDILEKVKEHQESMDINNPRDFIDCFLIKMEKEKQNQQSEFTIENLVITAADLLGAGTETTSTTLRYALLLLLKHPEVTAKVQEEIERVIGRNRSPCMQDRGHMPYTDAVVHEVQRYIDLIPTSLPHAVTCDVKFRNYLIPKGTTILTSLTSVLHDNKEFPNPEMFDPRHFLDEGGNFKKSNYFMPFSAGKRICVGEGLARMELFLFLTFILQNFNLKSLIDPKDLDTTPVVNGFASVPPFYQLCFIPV

CC1=NN(c2ccccc2)C(=O)[C@@H]1/N=N\c1ccc([As](=O)(O)O)c(O)c1
AC50 (Cytochrome P450 1A2): 5.01 µM (inconclusive) | AC50 (Cytochrome P450 2D6): inconclusive

O=C(Oc1c(CN2CCOCC2)cc(Cl)c2cccnc12)c1ccccc1Cl
EC50 [1]: > 160 µM (inactive) | EC50 [2]: 2.86 µM (active) | AC50 [3]: 4.59 µM (active) | AC50 [4]: 7.37 µM (active) | AC50 [5]: 9.15 µM (active) | EC50 (HEK293 [6]): > 59.6 µM (inactive) | EC50 (HEK293 [7]): > 59.6 µM (inactive)

O=c1cc(-c2ccccc2Cl)oc2c([N+](=O)[O-])c(O)cc(O)c12
CC50 [8]: > 40 µM (active) | AC50 [9]: 1.22 µM (active)

Cc1ccc(C(O)(c2ccccc2)c2ccccc2C(C)N(C)C)c(C)c1 (configuration not stated)
IC50 [10]: 0.799 µM (active) | AC50 [11]: 20.1 µM (active) | AC50 [12]: 19.6 µM (active) | AC50 [13]: 39 µM (active) | AC50 [14]: 30.5 µM (active)

NS(=O)(=O)c1cc(C(=O)O)c(Cl)c([N+](=O)[O-])c1Cl
AC50 (Cytochrome P450 2C19): inconclusive | AC50 (Cytochrome P450 1A2): 1.26 µM (inconclusive) | AC50 (Cytochrome P450 2D6): inconclusive

CNCc1cc(Br)c(OCC(=O)Nc2ccccc2OC)c(OC)c1
IC50 (Bcl-2-related protein A1): > 20 µM (inactive) | IC50 [15]: 8.66 µM (active) | IC50 [16]: 9.34 µM (active) | AC50 [17]: 14.7 µM (active)

Cc1ccc2oc3c(c(=O)c2c1)C(c1cccs1)N(CCCN(C)C)C3=O (configuration not stated)
AC50 (Escherichia coli): 27.1 µM (active)

O=C(NC1CCCCC1)C(c1ccc2ncccc2c1)N(Cc1ccccc1)C(=O)c1ccc2c(c1)OCCO2 (configuration not stated)
IC50 [18]: 10 µM (active) | IC50 (H9c2): > 79 µM (inactive)

COc1ccc(N(C(=O)c2snc(C(N)=O)c2N)C(C(=O)NC2CCCC2)c2ccco2)cc1 (configuration not stated)
IC50 (Bcl-2-related protein A1): > 20 µM (inactive) | IC50 [15]: 8.84 µM (active) | IC50 [16]: 8.44 µM (active)

O=C(c1ccco1)N1CCCC(c2nc(O)c3nnn(Cc4ccc(F)cc4)c3n2)C1 (configuration not stated)
AC50 (Escherichia coli): 42.9 µM (active)

CCCCN1C(=O)C(NC(C)=O)c2cc(C)ccc21 (configuration not stated)
IC50 (Hexokinase-1): > 80 µM (inactive) | IC50 (Hexokinase HKDC1): > 80 µM (inactive)
